Read-outs that look alike come from different tables or passages of the source.
How the values were obtained:
JAK2 = JAK2 (Homo sapiens, UniProt O60674); test: Caliper Mobility Shift Assay, kinase enzyme activity, JAK2; assay type: biochemical; conditions: for inhibitory effect on kinase JAK2 (in words): JAK2, summary of Table 1; for IC50: JAK2, read-out: Kinase inhibitory activity (IC50, nM) JAK2
Method: (§1) The half-inhibition concentration IC50 of the compound (the concentration of the compound required to inhibit the enzyme activity to 50%) is measured by mixing the fixed enzyme with a specific substrate and different concentrations of the test compound. The measurement method used was Caliper Mobility Shift Assay, the kinases measured were JAK1, JAK2, JAK3 and TYK2, and the standard reference compound used was staurosporine.

[1] = Pharmacokinetics experiment in mice (intravenous and oral); assay type: in vivo; conditions: for F: 10 mg/kg oral vs 2 mg/kg intravenous; for AUC(0-t) / MRT inf / clearance / half-life / Vd / Cmax / Tmax: both sexes, mouse, blood, single dose; for half-life: read-out: Terminal t1/2 (converted); for Vd: read-out: Vss
Method: Experimental animals: mice, male and female, weight: 23-25 g;
Preparation of the test articles: The target compounds (Ig, Ii, and Ip) were prepared as 0.4 mg/mL (for intravenous administration) and 1.0 mg/mL (for oral administration), for later use. Administration route: oral administration/intravenous injection. Dosing volume and frequency: 5 mL/kg (intravenous injection) or 10 mL/kg (oral administration), single dose.
Sample collection: Blood was collected at the following time points, 5 min, 15 min, 30 min, 1 hr, 2 hr, 4 hr, 8 hr and 24 hr after administration.
Sample analysis: LC-MS/MS method was used to detect the collected samples. The instrument model used was Triple Quad 6500+.
Pharmacokinetic data analysis: WinNolin was used to fit and calculate the obtained blood drug concentration data according to the non-compartmental model method, and partial results are summarized in Table 2.

JAK3 = target: T1, JAK3 (Homo sapiens, UniProt P52333); test: Caliper Mobility Shift Assay, kinase enzyme activity, JAK3; assay type: biochemical; conditions: for inhibitory activity on JAK3 (in words): JAK3, summary of Table 1; for IC50: JAK3, read-out: Kinase inhibitory activity (IC50, nM) JAK3
T1 sequence (P52333 1-1124): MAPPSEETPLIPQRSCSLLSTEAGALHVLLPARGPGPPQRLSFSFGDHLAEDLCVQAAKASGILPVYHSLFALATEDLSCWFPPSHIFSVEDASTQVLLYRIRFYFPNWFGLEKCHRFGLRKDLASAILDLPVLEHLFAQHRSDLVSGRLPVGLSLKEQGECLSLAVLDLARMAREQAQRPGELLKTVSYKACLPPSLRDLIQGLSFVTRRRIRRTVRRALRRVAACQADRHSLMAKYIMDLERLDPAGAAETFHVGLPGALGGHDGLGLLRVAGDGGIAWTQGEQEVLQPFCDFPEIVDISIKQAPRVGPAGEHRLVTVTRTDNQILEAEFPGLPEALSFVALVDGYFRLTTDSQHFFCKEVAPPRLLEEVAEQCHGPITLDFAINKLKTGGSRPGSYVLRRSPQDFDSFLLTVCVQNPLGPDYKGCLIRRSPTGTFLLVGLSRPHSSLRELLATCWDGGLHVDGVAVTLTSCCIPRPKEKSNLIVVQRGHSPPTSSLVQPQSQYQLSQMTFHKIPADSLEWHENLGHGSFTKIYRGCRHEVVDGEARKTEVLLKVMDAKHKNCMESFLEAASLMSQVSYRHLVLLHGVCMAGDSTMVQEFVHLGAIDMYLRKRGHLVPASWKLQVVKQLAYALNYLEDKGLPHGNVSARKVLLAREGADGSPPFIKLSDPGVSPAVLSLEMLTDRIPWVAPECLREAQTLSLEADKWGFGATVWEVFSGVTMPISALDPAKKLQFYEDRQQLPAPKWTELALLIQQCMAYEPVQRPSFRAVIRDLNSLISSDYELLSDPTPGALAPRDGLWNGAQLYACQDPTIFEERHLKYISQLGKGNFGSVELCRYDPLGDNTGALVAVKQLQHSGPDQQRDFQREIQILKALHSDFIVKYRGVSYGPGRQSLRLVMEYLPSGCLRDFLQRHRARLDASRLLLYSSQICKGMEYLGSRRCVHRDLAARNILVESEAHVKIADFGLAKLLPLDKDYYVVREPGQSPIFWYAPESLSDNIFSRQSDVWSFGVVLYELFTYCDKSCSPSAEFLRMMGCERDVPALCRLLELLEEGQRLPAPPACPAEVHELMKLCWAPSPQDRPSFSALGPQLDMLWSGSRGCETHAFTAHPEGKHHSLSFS
Method: as §1

JAK1 = JAK1 (Homo sapiens, UniProt P23458); test: Caliper Mobility Shift Assay, kinase enzyme activity, JAK1; assay type: biochemical; conditions: for inhibitory effect on kinase JAK1 (in words): JAK1, summary of Table 1; for IC50: JAK1, read-out: Kinase inhibitory activity (IC50, nM) JAK1
JAK1, sequence (P23458 whole entry): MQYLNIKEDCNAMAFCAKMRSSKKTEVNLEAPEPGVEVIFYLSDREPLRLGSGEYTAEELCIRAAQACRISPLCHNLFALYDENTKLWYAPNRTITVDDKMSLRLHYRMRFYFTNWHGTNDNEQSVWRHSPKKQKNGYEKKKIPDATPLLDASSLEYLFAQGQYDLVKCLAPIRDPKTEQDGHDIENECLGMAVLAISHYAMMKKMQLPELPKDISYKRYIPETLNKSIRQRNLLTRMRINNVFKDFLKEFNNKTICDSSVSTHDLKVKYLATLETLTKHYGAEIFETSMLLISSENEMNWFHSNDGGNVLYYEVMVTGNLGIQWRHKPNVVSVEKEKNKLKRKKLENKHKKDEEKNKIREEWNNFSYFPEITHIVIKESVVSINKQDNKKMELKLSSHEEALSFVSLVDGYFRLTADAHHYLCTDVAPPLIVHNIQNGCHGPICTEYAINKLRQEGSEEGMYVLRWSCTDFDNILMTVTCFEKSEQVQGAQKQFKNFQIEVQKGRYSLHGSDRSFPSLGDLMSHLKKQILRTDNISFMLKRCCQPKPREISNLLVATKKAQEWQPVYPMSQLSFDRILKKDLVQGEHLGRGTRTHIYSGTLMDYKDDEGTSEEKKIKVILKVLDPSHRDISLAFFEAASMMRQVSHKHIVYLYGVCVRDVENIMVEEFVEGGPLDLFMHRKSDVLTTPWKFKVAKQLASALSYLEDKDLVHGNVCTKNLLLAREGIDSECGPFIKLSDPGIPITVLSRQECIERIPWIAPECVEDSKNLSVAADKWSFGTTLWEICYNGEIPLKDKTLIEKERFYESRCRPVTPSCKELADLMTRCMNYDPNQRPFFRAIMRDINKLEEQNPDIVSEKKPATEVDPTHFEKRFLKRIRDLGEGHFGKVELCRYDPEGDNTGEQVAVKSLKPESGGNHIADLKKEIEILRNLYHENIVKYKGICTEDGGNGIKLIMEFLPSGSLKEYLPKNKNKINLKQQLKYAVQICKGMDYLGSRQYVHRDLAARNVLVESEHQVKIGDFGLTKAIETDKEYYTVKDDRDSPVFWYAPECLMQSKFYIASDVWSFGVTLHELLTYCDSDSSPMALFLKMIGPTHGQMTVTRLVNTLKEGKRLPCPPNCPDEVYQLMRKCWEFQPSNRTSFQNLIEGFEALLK
Method: as §1

TYK2 = TYK2 (Homo sapiens, UniProt P29597); test: Caliper Mobility Shift Assay, kinase enzyme activity, TYK2; assay type: biochemical; conditions: for inhibitory activity on TYK2 (in words): TYK2, summary of Table 1; for IC50: TYK2, read-out: Kinase inhibitory activity (IC50, nM) TYK2
TYK2, sequence (P29597 whole entry): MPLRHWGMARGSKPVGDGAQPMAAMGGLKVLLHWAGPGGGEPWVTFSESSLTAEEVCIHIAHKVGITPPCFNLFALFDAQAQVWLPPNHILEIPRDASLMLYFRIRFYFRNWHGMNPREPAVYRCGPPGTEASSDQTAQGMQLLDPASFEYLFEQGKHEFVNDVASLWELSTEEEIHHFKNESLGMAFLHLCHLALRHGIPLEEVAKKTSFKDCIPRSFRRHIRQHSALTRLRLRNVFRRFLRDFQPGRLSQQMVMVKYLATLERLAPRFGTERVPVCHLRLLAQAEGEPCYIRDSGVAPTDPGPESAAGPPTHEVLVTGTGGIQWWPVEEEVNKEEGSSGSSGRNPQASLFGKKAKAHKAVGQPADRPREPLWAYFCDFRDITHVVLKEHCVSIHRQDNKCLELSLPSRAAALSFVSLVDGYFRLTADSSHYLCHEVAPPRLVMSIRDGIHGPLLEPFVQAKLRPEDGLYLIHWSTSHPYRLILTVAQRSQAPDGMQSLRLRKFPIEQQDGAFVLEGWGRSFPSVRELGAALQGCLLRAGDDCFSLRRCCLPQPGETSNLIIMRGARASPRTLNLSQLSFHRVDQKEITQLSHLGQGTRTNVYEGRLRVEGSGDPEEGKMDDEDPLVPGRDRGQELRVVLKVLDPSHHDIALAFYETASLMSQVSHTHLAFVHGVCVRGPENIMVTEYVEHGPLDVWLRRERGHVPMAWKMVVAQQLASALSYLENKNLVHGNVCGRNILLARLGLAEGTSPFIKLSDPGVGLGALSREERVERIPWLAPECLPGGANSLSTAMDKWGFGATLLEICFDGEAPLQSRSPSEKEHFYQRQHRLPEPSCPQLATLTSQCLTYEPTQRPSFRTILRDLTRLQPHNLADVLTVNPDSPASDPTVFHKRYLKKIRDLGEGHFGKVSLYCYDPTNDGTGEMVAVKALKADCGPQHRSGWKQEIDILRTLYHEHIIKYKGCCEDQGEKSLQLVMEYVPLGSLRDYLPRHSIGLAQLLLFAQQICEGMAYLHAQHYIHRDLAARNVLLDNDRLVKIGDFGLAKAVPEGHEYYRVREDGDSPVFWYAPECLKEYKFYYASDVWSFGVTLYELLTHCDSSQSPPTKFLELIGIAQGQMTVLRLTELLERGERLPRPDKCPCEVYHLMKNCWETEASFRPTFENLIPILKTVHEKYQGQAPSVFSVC
Method: as §1

JAK2, sequence (O60674 whole entry): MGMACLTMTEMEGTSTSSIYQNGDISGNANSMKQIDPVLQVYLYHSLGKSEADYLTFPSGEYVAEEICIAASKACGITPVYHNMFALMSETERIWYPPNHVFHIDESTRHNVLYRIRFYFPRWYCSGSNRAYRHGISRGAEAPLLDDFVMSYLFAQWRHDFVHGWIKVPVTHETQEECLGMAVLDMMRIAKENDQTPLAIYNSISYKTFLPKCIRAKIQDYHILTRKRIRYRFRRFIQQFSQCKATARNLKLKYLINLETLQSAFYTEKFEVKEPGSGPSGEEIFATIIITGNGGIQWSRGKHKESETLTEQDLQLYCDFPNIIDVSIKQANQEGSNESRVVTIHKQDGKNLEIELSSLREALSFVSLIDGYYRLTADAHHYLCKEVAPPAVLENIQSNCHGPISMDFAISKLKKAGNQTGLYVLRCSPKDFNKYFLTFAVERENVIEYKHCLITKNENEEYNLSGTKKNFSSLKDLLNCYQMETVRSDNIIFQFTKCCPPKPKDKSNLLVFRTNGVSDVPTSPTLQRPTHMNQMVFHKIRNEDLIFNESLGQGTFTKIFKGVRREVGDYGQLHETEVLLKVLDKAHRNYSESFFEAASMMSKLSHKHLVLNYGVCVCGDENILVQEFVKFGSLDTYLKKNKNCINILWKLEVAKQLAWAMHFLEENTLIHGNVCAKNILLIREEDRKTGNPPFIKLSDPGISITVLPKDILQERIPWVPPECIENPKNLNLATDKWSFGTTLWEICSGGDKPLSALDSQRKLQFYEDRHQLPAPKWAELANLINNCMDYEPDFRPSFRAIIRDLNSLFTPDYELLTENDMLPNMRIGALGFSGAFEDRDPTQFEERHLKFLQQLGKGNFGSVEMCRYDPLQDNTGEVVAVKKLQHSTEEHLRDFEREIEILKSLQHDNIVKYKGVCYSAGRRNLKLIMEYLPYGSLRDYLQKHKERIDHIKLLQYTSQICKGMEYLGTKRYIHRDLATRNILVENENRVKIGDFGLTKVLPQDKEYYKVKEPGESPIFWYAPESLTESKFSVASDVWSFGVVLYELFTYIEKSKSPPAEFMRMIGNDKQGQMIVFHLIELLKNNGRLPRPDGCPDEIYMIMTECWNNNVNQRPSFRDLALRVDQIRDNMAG

| Compound | inhibitory effect on kinase JAK2 (in words) (JAK2) | IC50 (JAK2) [nM] | F [1] [%] | AUC(0-t) ([1]; 2 mg/kg, intravenous injection) [ng·h/mL] | MRT inf ([1]; 2 mg/kg, intravenous injection) [min] | clearance ([1]; 2 mg/kg, intravenous injection) [mL/min/kg] | half-life ([1]; 2 mg/kg, intravenous injection) [min] | Vd ([1]; 2 mg/kg, intravenous injection) [L/kg] | AUC(0-t) ([1]; 10 mg/kg, oral administration) [ng·h/mL] | Cmax ([1]; 10 mg/kg, oral administration) [ng/mL] | Tmax ([1]; 10 mg/kg, oral administration) [min] | half-life ([1]; 10 mg/kg, oral administration) [min] | inhibitory activity on JAK3 (in words) (JAK3) | IC50 (JAK3) [nM] | inhibitory effect on kinase JAK1 (in words) (JAK1) | IC50 (JAK1) [nM] | inhibitory activity on TYK2 (in words) (TYK2) | IC50 (TYK2) [nM] |
| --- | --- | --- | --- | --- | --- | --- | --- | --- | --- | --- | --- | --- | --- | --- | --- | --- | --- | --- |
| N#CCC1(n2cc(-c3ncnc4[nH]ncc34)cn2)CN(C2CCN(C(=O)c3ccnc(C(F)(F)F)c3F)CC2)C1 [Compound Ii] | strong inhibitory effect | 126 | 37.9 | 900 | 35.8 | 37.3 | 50 | 1.32 | 1710 | 904 | 60 | 59.2 | weak inhibitory activity | 3770 | strong inhibitory effect | 39 | weak inhibitory activity | 2660 |
| CCS(=O)(=O)N1CC(CC#N)(n2cc(-c3ncnc4[nH]ncc34)cn2)C1 [Compound Ip] | strong inhibitory effect | 12 | 99.4 | 1200 | 63.6 | 27.3 | 83.4 | 1.74 | 5950 | 3380 | 15 | 84 | weak inhibitory activity | 423 |  |  | weak inhibitory activity | 209 |
| CCS(=O)(=O)N1CCC(N2CC(CC#N)(n3cc(-c4ncnc5[nH]ncc45)cn3)C2)CC1 [Compound Ig] | strong inhibitory effect | 47 | 51.7 | 883 | 26.8 | 37.5 | 23.4 | 0.997 | 2290 | 1310 | 22.5 | 70.8 | weak inhibitory activity | 2060 | strong inhibitory effect | 58 | weak inhibitory activity | 1230 |
